According to the supplement of paper PMC11061612:

What was measured:
Test in all cases: combination Emax (second highest fraction inhibited in the dose matrix, 72 h); higher = more inhibition; extreme values may be limits of the assay
[1] = tested on: Ca9-22 (Head and Neck Carcinoma)
Method in brief: (§1)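 Bliss excess equals the observed combination effect minus the expected value EA + EB − EA·EB, where EA and EB are the effects of each agent alone. Combination Emax is the second-highest inhibition within the matrix. Inhibition was scaled from CellTiter-Glo 2.0 luminescence, with 0 set by vehicle wells and 1 by blank wells, after 72 hours of two-drug dosing of cells plated in 1536-well plates.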

D-263MG (Glioblastoma) = tested on: D-263MG (Glioblastoma)
Method in brief: as §1

[2] = tested on: EFM-19 (Breast Carcinoma)
Method in brief: as §1

EW-24 (Ewing's Sarcoma) = tested on: EW-24 (Ewing's Sarcoma)
Method in brief: as §1

[3] = tested on: EoL-1-cell (Acute Myeloid Leukemia)
Method in brief: as §1

[4] = tested on: HOP-62 (Lung Adenocarcinoma)
Method in brief: as §1

[5] = tested on: HSC-4 (Oral Cavity Carcinoma)
Method in brief: as §1

[6] = tested on: Hs-766T (Pancreatic Carcinoma)
Method in brief: as §1

[7] = tested on: KARPAS-299 (T-Cell Non-Hodgkin's Lymphoma)
Method in brief: as §1

[8] = tested on: NCI-H358 (Lung Adenocarcinoma)
Method in brief: as §1

[9] = tested on: NUGC-3 (Gastric Carcinoma)
Method in brief: as §1

[10] = tested on: OVCAR-4 (Ovarian Carcinoma)
Method in brief: as §1

[11] = tested on: PANC-04-03 (Pancreatic Carcinoma)
Method in brief: as §1

PWR-1E (Non-Cancerous) = tested on: PWR-1E (Non-Cancerous)
Method in brief: as §1

[12] = tested on: SCC-15 (Oral Cavity Carcinoma)
Method in brief: as §1

[13] = tested on: SU8686 (Pancreatic Carcinoma)
Method in brief: as §1

TGW (Neuroblastoma) = tested on: TGW (Neuroblastoma)
Method in brief: as §1

TK10 (Kidney Carcinoma) = tested on: TK10 (Kidney Carcinoma)
Method in brief: as §1

UACC-62 (Melanoma) = tested on: UACC-62 (Melanoma)
Method in brief: as §1

YH-13 (Glioblastoma) = tested on: YH-13 (Glioblastoma)
Method in brief: as §1

Row | SMILES | combination Emax [1] | combination Emax (D-263MG (Glioblastoma)) | combination Emax [2] | combination Emax (EW-24 (Ewing's Sarcoma)) | combination Emax [3] | combination Emax [4] | combination Emax [5] | combination Emax [6] | combination Emax [7] | combination Emax [8] | combination Emax [9] | combination Emax [10] | combination Emax [11] | combination Emax (PWR-1E (Non-Cancerous)) | combination Emax [12] | combination Emax [13] | combination Emax (TGW (Neuroblastoma)) | combination Emax (TK10 (Kidney Carcinoma)) | combination Emax (UACC-62 (Melanoma)) | combination Emax (YH-13 (Glioblastoma))
1 | COc1cccc(OCCCN)c1-c1cc(Nc2cnc(C#N)cn2)n[nH]1 [Prexasertib] + CN(C)CCCOc1ccc(-c2ccc3ncc4c(c3c2)n(C2CCOCC2)c(=O)n4C)cn1 [AZD0156] (first compound max 1 µM, 7x7, partner max 1 µM) | 1 | 0.915 | 0.28 | 0.68 | 0.998 | 0.632 | 0.604 | 0.665 | 0.983 | 0.775 | 0.726 | 0.771 | 0.564 | 0.953 | 0.617 | 0.525 | 0.964 | 0.727 | 0.828 | 0.777
2 | NC1(C(=O)N[C@@H](CCO)c2ccc(Cl)cc2)CCN(c2ncnc3[nH]ccc23)CC1 [Capivasertib] + CC(C)n1c(=O)n(C)c2cnc3cc(F)c(-c4ccc(OCCCN5CCCCC5)nc4)cc3c21 [AZD1390] (first compound max 10 µM, 7x7, partner max 0.3 µM) | 0.286 | 0.249 | 0.469 | 0.407 | 0.874 | 0.374 | 0.337 | 0.209 | 0.376 | 0.374 | 0.339 | 0.162 | 0.318 | 0.4 | 0.227 | 0.113 | 0.172 | 0.411 | 0.572 | 0.541
3 | Cn1cnc2c(F)c(Nc3ccc(Br)cc3Cl)c(C(=O)NOCCO)cc21 [Selumetinib] + C=CCn1c(=O)c2cnc(Nc3ccc(N4CCN(C)CC4)cc3)nc2n1-c1cccc(C(C)(C)O)n1 [AZD1775] (first compound max 10 µM, partner max 1 µM) | 0.55 | 0.218 | 0.321 | 0.334 | 1 | 0.487 | 0.427 | 0.487 | 0.851 | 0.621 | 0.639 | 0.546 | 0.456 | 0.34 | 0.3 | 0.126 | 0.566 | 0.478 | 0.827 | 0.329
4 | Cc1c2c(nn1C)CSCc1cc(n(C)n1)CSc1cc(c3ccccc3c1)OCCCc1c(C(=O)O)n(C)c3c-2c(Cl)ccc13 [AZD5991] + C[C@@H](Nc1cc(F)cc(F)c1)c1cc(C(=O)N(C)C)cc2c(=O)cc(N3CCOCC3)oc12 [AZD8186] (first compound max 1 µM, 7x7, partner max 3 µM) | 0.521 | 0.975 | 0.586 | 0.291 | 1 | 0.281 | 0.24 | 0.45 | 0.957 | 0.282 | 0.209 | 0.288 | 0.266 | 0.268 | 0.322 | 0.378 | 0.347 | 0.419 | 0.934 | 0.585
5 | Cc1c2c(nn1C)CSCc1cc(n(C)n1)CSc1cc(c3ccccc3c1)OCCCc1c(C(=O)O)n(C)c3c-2c(Cl)ccc13 [AZD5991] + Cn1cnc2c(F)c(Nc3ccc(Br)cc3Cl)c(C(=O)NOCCO)cc21 [Selumetinib] (first compound max 1 µM, 7x7, partner max 3 µM) | 0.581 | 0.634 | 0.282 | 0.214 | 1 | 0.426 | 0.278 | 0.595 | 0.992 | 0.485 | 0.355 | 0.376 | 0.432 | 0.21 | 0.322 | 0.334 | 0.381 | 0.454 | 0.998 | 0.178
6 | CC1(C)CCC(CN2CCN(c3ccc(C(=O)NS(=O)(=O)c4ccc(NCC5CCOCC5)c([N+](=O)[O-])c4)c(Oc4cnc5[nH]ccc5c4)c3)CC2)=C(c2ccc(Cl)cc2)C1 [Venetoclax] + C[C@@H]1COCCN1C2=NC(=NC(=C2)C3(CC3)[S@](=N)(=O)C)C4=C5C=CNC5=NC=C4 [AZD6738] (first compound max 1 µM, 7x7, partner max 10 µM) | 0.865 | 0.515 | 0.495 | 0.731 | 1 | 0.624 | 0.601 | 0.565 | 0.954 | 0.731 | 0.711 | 0.684 | 0.443 | 0.932 | 0.442 | 0.0868 | 0.715 | 0.609 | 0.481 | 0.5
7 | C=CCn1c(=O)c2cnc(Nc3ccc(N4CCN(C)CC4)cc3)nc2n1-c1cccc(C(C)(C)O)n1 [AZD1775] + C[C@@H]1COCCN1C2=NC(=NC(=C2)C3(CC3)[S@](=N)(=O)C)C4=C5C=CNC5=NC=C4 [AZD6738] (first compound max 1 µM, partner max 10 µM) | 0.957 | 0.908 | 0.672 | 0.652 | 1 | 0.668 | 0.662 | 0.643 | 0.965 | 0.732 | 0.834 | 0.843 | 0.63 | 0.913 | 0.517 | 0.384 | 0.97 | 0.698 | 0.622 | 0.69
8 | CC(=O)c1c(C)c2cnc(Nc3ccc(N4CCNCC4)cn3)nc2n(C2CCCC2)c1=O [Palbociclib] + CC1(C)CCC(CN2CCN(c3ccc(C(=O)NS(=O)(=O)c4ccc(NCC5CCOCC5)c([N+](=O)[O-])c4)c(Oc4cnc5[nH]ccc5c4)c3)CC2)=C(c2ccc(Cl)cc2)C1 [Venetoclax] (first compound max 10 µM, 7x7, partner max 1 µM) | 0.2 | 0.222 | 0.0695 | 0.432 | 0.994 | 0.251 | 0.121 | 0.149 | 0.495 | 0.337 | 0.339 | 0.0611 | 0.0967 | 0.149 | 0.0783 | 0.0346 | 0.226 | 0.3 | 0.0969 | 0.344
9 | C=CCn1c(=O)c2cnc(Nc3ccc(N4CCN(C)CC4)cc3)nc2n1-c1cccc(C(C)(C)O)n1 [AZD1775] + O=C(c1cc(Cc2n[nH]c(=O)c3ccccc23)ccc1F)N1CCN(C(=O)C2CC2)CC1 [Olaparib] (first compound max 1 µM, partner max 10 µM) | 0.88 | 0.447 | 0.639 | 0.433 | 0.999 | 0.274 | 0.461 | 0.473 | 0.93 | 0.447 | 0.547 | 0.472 | 0.495 | 0.562 | 0.284 | 0.182 | 0.821 | 0.455 | 0.468 | 0.428
10 | CC1(C)CCC(CN2CCN(c3ccc(C(=O)NS(=O)(=O)c4ccc(NCC5CCOCC5)c([N+](=O)[O-])c4)c(Oc4cnc5[nH]ccc5c4)c3)CC2)=C(c2ccc(Cl)cc2)C1 [Venetoclax] + Cn1cnc2c(F)c(Nc3ccc(Br)cc3Cl)c(C(=O)NOCCO)cc21 [Selumetinib] (first compound max 1 µM, 7x7, partner max 3 µM) | 0.222 | 0.119 | 0.232 | 0.154 | 1 | 0.435 | 0.243 | 0.502 | 0.812 | 0.343 | 0.392 | 0.209 | 0.354 | 0.0808 | 0.264 | 0.135 | 0.337 | 0.322 | 0.767 | 0.181
11 | COc1nnc2ccc(N3CCC(c4ccc(OCCN5CCN(C)C(=O)[C@H]5C)cc4)CC3)nn12 [AZD5153] + C[C@@H]1COCCN1C2=NC(=NC(=C2)C3(CC3)[S@](=N)(=O)C)C4=C5C=CNC5=NC=C4 [AZD6738] (first compound max 1 µM, 7x7, partner max 10 µM) | 0.878 | 0.465 | 0.549 | 0.834 | 1 | 0.664 | 0.528 | 0.543 | 0.985 | 0.698 | 0.775 | 0.711 | 0.545 | 0.997 | 0.524 | 0.1 | 0.728 | 0.695 | 0.664 | 0.663
12 | CC1(C)CCC(CN2CCN(c3ccc(C(=O)NS(=O)(=O)c4ccc(NCC5CCOCC5)c([N+](=O)[O-])c4)c(Oc4cnc5[nH]ccc5c4)c3)CC2)=C(c2ccc(Cl)cc2)C1 [Venetoclax] + C=CCn1c(=O)c2cnc(Nc3ccc(N4CCN(C)CC4)cc3)nc2n1-c1cccc(C(C)(C)O)n1 [AZD1775] (first compound max 1 µM, partner max 1 µM) | 0.903 | 0.808 | 0.489 | 0.34 | 1 | 0.446 | 0.372 | 0.53 | 0.951 | 0.798 | 0.596 | 0.588 | 0.466 | 0.548 | 0.327 | 0.107 | 0.846 | 0.591 | 0.578 | 0.381
